Data published in the supplement of paper PMC10307832.

Assays:
Experiment in all cases: relative viability (nuclei count vs DMSO), 5 days (fraction); higher = more cells survive
LCLC-103H = test system: LCLC-103H
Outline: (§1)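 Lung cancer cell lines were seeded in 1536-well plates and dosed by pin tool the next day, with either a single drug or a fixed anchor-drug dose combined with five library-drug doses (not always all listed) spaced in √10 steps. Five days later, one step fixed the cells and stained their nuclei (final 0.05% Triton X-100, 1% formaldehyde, 1 ug/ml Hoechst), and nuclei were counted on 4× images. Relative viability is the nuclei count in treated wells divided by the count in vehicle wells, and each value is the median of duplicate plates.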

LXF-289 = test system: LXF-289
Outline: as §1

NCI-H1355 = test system: NCI-H1355
Outline: as §1

NCI-H1563 = test system: NCI-H1563
Outline: as §1

NCI-H1651 = test system: NCI-H1651
Outline: as §1

NCI-H1755 = test system: NCI-H1755
Outline: as §1

NCI-H1792 = test system: NCI-H1792
Outline: as §1

NCI-H1915 = test system: NCI-H1915
Outline: as §1

NCI-H2170 = test system: NCI-H2170
Outline: as §1

NCI-H2347 = test system: NCI-H2347
Outline: as §1

NCI-H3122 = test system: NCI-H3122
Outline: as §1

NCI-H322M = test system: NCI-H322M
Outline: as §1

NCI-H441 = test system: NCI-H441
Outline: as §1

NCI-H460 = test system: NCI-H460
Outline: as §1

NCI-H520 = test system: NCI-H520
Outline: as §1

NCI-H596 = test system: NCI-H596
Outline: as §1

NCI-H650 = test system: NCI-H650
Outline: as §1

NCI-H661 = test system: NCI-H661
Outline: as §1

NCI-H727 = test system: NCI-H727
Outline: as §1

PC-14 = test system: PC-14
Outline: as §1

RERF-LC-KJ = test system: RERF-LC-KJ
Outline: as §1

SK-MES-1 = test system: SK-MES-1
Outline: as §1

In the case of NC(=O)Nc1cc(-c2cccc(F)c2)sc1C(=O)N[C@H]1CCCNC1 [AZD7762] + C[C@@H](Oc1cc(-c2cnn(C3CCNCC3)c2)cnc1N)c1c(Cl)ccc(F)c1Cl [Crizotinib] (partner 1 µM), the relative viability (LCLC-103H; first compound 0.01 µM) is reported as 1.15, the relative viability (LCLC-103H; first compound 0.03162 µM) is reported as 0.994 and the relative viability (LCLC-103H; first compound 0.1 µM) is reported as 1.08. It also gave a relative viability (LCLC-103H; first compound 0.3162 µM) of 1.01, a relative viability (LCLC-103H; first compound 1 µM) of 1.04 and a relative viability (LXF-289; first compound 0.01 µM) of 0.788. The relative viability (LXF-289; first compound 0.03162 µM) was 0.8, the relative viability (LXF-289; first compound 0.1 µM) was 0.828 and the relative viability (LXF-289; first compound 0.3162 µM) was 0.864. The relative viability (LXF-289; first compound 1 µM) was 0.816, the relative viability (NCI-H1355; first compound 0.01 µM) was 1.02 and the relative viability (NCI-H1355; first compound 0.03162 µM) was 1.02. It also gave a relative viability (NCI-H1355; first compound 0.1 µM) of 1.01, a relative viability (NCI-H1355; first compound 0.3162 µM) of 1.14 and a relative viability (NCI-H1355; first compound 1 µM) of 1.03. It also gave a relative viability (NCI-H1563; first compound 0.01 µM) of 0.957, a relative viability (NCI-H1563; first compound 0.03162 µM) of 0.833 and a relative viability (NCI-H1563; first compound 0.1 µM) of 0.872. For the same molecule, the relative viability (NCI-H1563; first compound 0.3162 µM) was 0.889, the relative viability (NCI-H1563; first compound 1 µM) was 0.741 and the relative viability (NCI-H1651; first compound 0.01 µM) was 1. It also gave a relative viability (NCI-H1651; first compound 0.03162 µM) of 0.87, a relative viability (NCI-H1651; first compound 0.1 µM) of 0.894 and a relative viability (NCI-H1651; first compound 0.3162 µM) of 0.862. The relative viability (NCI-H1651; first compound 1 µM) was 0.714, the relative viability (NCI-H1755; first compound 0.01 µM) was 0.901 and the relative viability (NCI-H1755; first compound 0.03162 µM) was 0.872. For the same molecule, the relative viability (NCI-H1755; first compound 0.1 µM) was 0.929, the relative viability (NCI-H1755; first compound 0.3162 µM) was 0.853 and the relative viability (NCI-H1755; first compound 1 µM) was 0.508. The relative viability (NCI-H1792; first compound 0.01 µM) was 1.06, the relative viability (NCI-H1792; first compound 0.03162 µM) was 1 and the relative viability (NCI-H1792; first compound 0.1 µM) was 0.975. It also gave a relative viability (NCI-H1792; first compound 0.3162 µM) of 0.646, a relative viability (NCI-H1792; first compound 1 µM) of 1.12 and a relative viability (NCI-H1915; first compound 0.01 µM) of 0.93. For the same molecule, the relative viability (NCI-H1915; first compound 0.03162 µM) was 0.919, the relative viability (NCI-H1915; first compound 0.1 µM) was 0.891 and the relative viability (NCI-H1915; first compound 0.3162 µM) was 0.944. For the same molecule, the relative viability (NCI-H1915; first compound 1 µM) was 0.823, the relative viability (NCI-H2170; first compound 0.01 µM) was 1.2 and the relative viability (NCI-H2170; first compound 0.03162 µM) was 1.26. It also gave a relative viability (NCI-H2170; first compound 0.1 µM) of 1.24, a relative viability (NCI-H2170; first compound 0.3162 µM) of 1.28 and a relative viability (NCI-H2170; first compound 1 µM) of 1. It also gave a relative viability (NCI-H2347; first compound 0.01 µM) of 1.01, a relative viability (NCI-H2347; first compound 0.03162 µM) of 0.918 and a relative viability (NCI-H2347; first compound 0.1 µM) of 0.734. The relative viability (NCI-H2347; first compound 0.3162 µM) was 0.928, the relative viability (NCI-H2347; first compound 1 µM) was 0.67 and the relative viability (NCI-H3122; first compound 0.01 µM) was 0.266. For the same molecule, the relative viability (NCI-H3122; first compound 0.03162 µM) was 0.296, the relative viability (NCI-H3122; first compound 0.1 µM) was 0.329 and the relative viability (NCI-H3122; first compound 0.3162 µM) was 0.258. For the same molecule, the relative viability (NCI-H3122; first compound 1 µM) was 0.283, the relative viability (NCI-H322M; first compound 0.01 µM) was 1.04 and the relative viability (NCI-H322M; first compound 0.03162 µM) was 0.845. For the same molecule, the relative viability (NCI-H322M; first compound 0.1 µM) was 0.883, the relative viability (NCI-H322M; first compound 0.3162 µM) was 0.962 and the relative viability (NCI-H322M; first compound 1 µM) was 0.417. The relative viability (NCI-H441; first compound 0.01 µM) was 1.15, the relative viability (NCI-H441; first compound 0.03162 µM) was 0.745 and the relative viability (NCI-H441; first compound 0.1 µM) was 1.15. The relative viability (NCI-H441; first compound 0.3162 µM) was 0.995, the relative viability (NCI-H441; first compound 1 µM) was 0.89 and the relative viability (NCI-H460; first compound 0.01 µM) was 1.13. The relative viability (NCI-H460; first compound 0.03162 µM) was 0.879, the relative viability (NCI-H460; first compound 0.1 µM) was 0.758 and the relative viability (NCI-H460; first compound 0.3162 µM) was 0.593. For the same molecule, the relative viability (NCI-H460; first compound 1 µM) was 0.0457, the relative viability (NCI-H520; first compound 0.01 µM) was 0.975 and the relative viability (NCI-H520; first compound 0.03162 µM) was 0.692. The relative viability (NCI-H520; first compound 0.1 µM) was 0.477, the relative viability (NCI-H520; first compound 0.3162 µM) was 0.504 and the relative viability (NCI-H520; first compound 1 µM) was 0.276. It also gave a relative viability (NCI-H596; first compound 0.01 µM) of 0.991, a relative viability (NCI-H596; first compound 0.03162 µM) of 0.942 and a relative viability (NCI-H596; first compound 0.1 µM) of 1.02. For the same molecule, the relative viability (NCI-H596; first compound 0.3162 µM) was 1.11, the relative viability (NCI-H596; first compound 1 µM) was 0.863 and the relative viability (NCI-H650; first compound 0.01 µM) was 0.882. For the same molecule, the relative viability (NCI-H650; first compound 0.03162 µM) was 0.594, the relative viability (NCI-H650; first compound 0.1 µM) was 0.714 and the relative viability (NCI-H650; first compound 0.3162 µM) was 0.688. It also gave a relative viability (NCI-H650; first compound 1 µM) of 0.466, a relative viability (NCI-H661; first compound 0.01 µM) of 0.952 and a relative viability (NCI-H661; first compound 0.03162 µM) of 0.87. The relative viability (NCI-H661; first compound 0.1 µM) was 1.08, the relative viability (NCI-H661; first compound 0.3162 µM) was 0.99 and the relative viability (NCI-H661; first compound 1 µM) was 0.886. For the same molecule, the relative viability (NCI-H727; first compound 0.01 µM) was 0.984, the relative viability (NCI-H727; first compound 0.03162 µM) was 0.865 and the relative viability (NCI-H727; first compound 0.1 µM) was 0.758. For the same molecule, the relative viability (NCI-H727; first compound 0.3162 µM) was 0.519, the relative viability (NCI-H727; first compound 1 µM) was 0.259 and the relative viability (PC-14; first compound 0.01 µM) was 0.943. The relative viability (PC-14; first compound 0.03162 µM) was 0.859, the relative viability (PC-14; first compound 0.1 µM) was 0.922 and the relative viability (PC-14; first compound 0.3162 µM) was 0.81. It also gave a relative viability (PC-14; first compound 1 µM) of 0.41, a relative viability (RERF-LC-KJ; first compound 0.01 µM) of 0.897 and a relative viability (RERF-LC-KJ; first compound 0.03162 µM) of 0.894. It also gave a relative viability (RERF-LC-KJ; first compound 0.1 µM) of 0.777, a relative viability (RERF-LC-KJ; first compound 0.3162 µM) of 0.809 and a relative viability (RERF-LC-KJ; first compound 1 µM) of 0.742. The relative viability (SK-MES-1; first compound 0.01 µM) was 1.05, the relative viability (SK-MES-1; first compound 0.03162 µM) was 0.966 and the relative viability (SK-MES-1; first compound 0.1 µM) was 1.08. For the same molecule, the relative viability (SK-MES-1; first compound 0.3162 µM) was 0.999 and the relative viability (SK-MES-1; first compound 1 µM) was 0.614.
